# Results published in PubChem BioAssay (NCI).
#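 Method: 48-hour compound exposure of cells in 96-well plates, five concentrations, linear interpolation of endpoints. TGI: total growth inhibition.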
# What was measured:
# Test in all cases: inhibition of tumour cell growth, NCI panel, 48 h
# [1] = system: UACC-257 melanoma
# [2] = system: ACHN renal
# [3] = system: HS 578T breast
# [4] = system: CAKI-1 renal
# [5] = system: LOX IMVI melanoma
# [6] = system: MCF7 breast
# [7] = system: HOP-92 NSCLC
# [8] = system: NCI-H23 lung
# [9] = system: OVCAR-8 ovarian
# [10] = system: HCT-116 colon
# [11] = system: IGROV1 ovarian
# [12] = system: MDA-MB-435
# [13] = system: OVCAR-5 ovarian
# [14] = system: HOP-62 NSCLC
# [15] = system: SR leukemia
# [16] = system: UO-31 renal
# [17] = system: SNB-19 CNS
# [18] = system: NCI/ADR-RES ovarian
# [19] = system: MDA-N
# [20] = system: HT29 colon
# [21] = system: SK-MEL-5 melanoma
# [22] = system: CCRF-CEM leukemia
# [23] = system: K-562 leukemia
# [24] = system: SF-539 CNS
# [25] = system: 786-0 renal
# [26] = system: PC-3 prostate
# [27] = system: EKVX NSCLC
# [28] = system: SK-MEL-28 melanoma
# [29] = system: NCI-H522 lung
# [30] = system: A549 NSCLC
# [31] = system: HCT-15 colon
# [32] = system: T-47D breast
# [33] = system: SNB-75 CNS
# [34] = system: OVCAR-3 ovarian
# [35] = system: COLO 205 colon
# [36] = system: SF-295 CNS
# [37] = system: SF-268 CNS
# [38] = system: SW-620 colon
# [39] = system: SK-MEL-2 melanoma
# [40] = system: TK-10 renal
# [41] = system: UACC-62 melanoma
# [42] = system: HCC-2998 colon
# [43] = system: KM12 colon
# [44] = system: SN12C renal
# [45] = system: M14 melanoma
# [46] = system: DU-145 prostate
# [47] = system: SK-OV-3 ovarian
# [48] = system: MALME-3M melanoma
# [49] = system: NCI-H226 lung
# [50] = system: RPMI-8226 leukemia
# [51] = system: U251 CNS
# [52] = system: BT-549 breast
# [53] = system: MOLT-4 leukemia
# [54] = system: MDA-MB-231 breast
# [55] = system: NCI-H460 lung
# [56] = system: HL-60(TB) leukemia
# [57] = system: OVCAR-4 ovarian
# [58] = system: RXF 393 renal
compound,measurement,setting,value
CC1C(c2ccc(F)cc2)c2cc3c(cc2OC1N1CCCC1)OCO3 (stereo not given),TGI,[1],> 100 µM
same,TGI,[2],> 100 µM
same,TGI,[3],54.8 µM
same,TGI,[4],58.4 µM
same,TGI,[5],> 100 µM
same,TGI,[6],> 100 µM
same,TGI,[7],45.7 µM
same,TGI,[8],> 100 µM
same,TGI,[9],> 100 µM
same,TGI,[10],> 100 µM
same,TGI,[11],> 100 µM
same,TGI,[12],> 100 µM
same,TGI,[13],> 100 µM
same,TGI,[14],> 100 µM
same,TGI,[15],> 100 µM
same,TGI,[16],> 100 µM
same,TGI,[17],> 100 µM
same,TGI,[18],> 100 µM
same,TGI,[19],> 100 µM
same,TGI,[20],> 100 µM
same,TGI,[21],> 100 µM
same,TGI,[22],> 100 µM
same,TGI,[23],> 100 µM
same,TGI,[24],> 100 µM
same,TGI,[25],> 100 µM
same,TGI,[26],> 100 µM
same,TGI,[27],> 100 µM
same,TGI,[28],> 100 µM
same,TGI,[29],> 100 µM
same,TGI,[30],> 100 µM
same,TGI,[31],> 100 µM
same,TGI,[32],> 100 µM
same,TGI,[33],> 100 µM
same,TGI,[34],> 100 µM
same,TGI,[35],> 100 µM
same,TGI,[36],> 100 µM
same,TGI,[37],> 100 µM
same,TGI,[38],> 100 µM
same,TGI,[39],> 100 µM
same,TGI,[40],> 100 µM
same,TGI,[41],> 100 µM
same,TGI,[42],> 100 µM
same,TGI,[43],> 100 µM
same,TGI,[44],> 100 µM
same,TGI,[45],> 100 µM
same,TGI,[46],> 100 µM
CC(C)(C)OC(=O)[N+](=N)C(=O)C1CCC(=O)N1C(=O)OCc1ccccc1 (stereo not given),TGI,[2],> 100 µM
same,TGI,[3],> 100 µM
same,TGI,[4],> 100 µM
same,TGI,[47],> 100 µM
same,TGI,[48],> 100 µM
same,TGI,[5],> 100 µM
same,TGI,[49],> 100 µM
same,TGI,[6],> 100 µM
same,TGI,[50],> 100 µM
same,TGI,[7],> 100 µM
same,TGI,[8],> 100 µM
same,TGI,[51],> 100 µM
same,TGI,[9],> 100 µM
same,TGI,[10],> 100 µM
same,TGI,[11],> 100 µM
same,TGI,[12],> 100 µM
same,TGI,[13],> 100 µM
same,TGI,[14],> 100 µM
same,TGI,[52],> 100 µM
same,TGI,[15],> 100 µM
same,TGI,[16],> 100 µM
same,TGI,[17],> 100 µM
same,TGI,[18],> 100 µM
same,TGI,[19],> 100 µM
same,TGI,[53],> 100 µM
same,TGI,[20],> 100 µM
same,TGI,[21],> 100 µM
same,TGI,[22],> 100 µM
same,TGI,[23],> 100 µM
same,TGI,[25],> 100 µM
same,TGI,[54],> 100 µM
same,TGI,[26],> 100 µM
same,TGI,[27],> 100 µM
same,TGI,[28],> 100 µM
same,TGI,[29],> 100 µM
same,TGI,[30],> 100 µM
same,TGI,[55],> 100 µM
same,TGI,[32],> 100 µM
same,TGI,[33],> 100 µM
same,TGI,[34],> 100 µM
same,TGI,[35],> 100 µM
same,TGI,[36],> 100 µM
same,TGI,[56],> 100 µM
same,TGI,[37],> 100 µM
same,TGI,[38],> 100 µM
same,TGI,[57],> 100 µM
same,TGI,[40],> 100 µM
same,TGI,[58],> 100 µM
same,TGI,[41],> 100 µM
same,TGI,[42],> 100 µM
same,TGI,[43],> 100 µM
same,TGI,[44],> 100 µM
same,TGI,[45],> 100 µM
same,TGI,[46],> 100 µM
